Starred links: 1 amine or outer side, 2 acyl side, 3 side chain; linkers in the order of their positions; H or OH if unused. Positions of bridges follow the written chain, without caps; N, C: chain ends. Non-standard residues stand in square brackets, D forms with d. Residues, ends and D or L forms follow the SMILES beside them. *: point of attachment. hPhe(3-Cl-4-CF3) = N[C@@H](CCc1ccc(C(F)(F)F)c(Cl)c1)C(=O)O; hPhe(3-F,4-CF3) = N[C@@H](CCc1ccc(C(F)(F)F)c(F)c1)C(=O)O; NMePhe(4-CF3) = CN[C@@H](Cc1ccc(C(F)(F)F)cc1)C(=O)O; NMePhe(4-Cl) = CN[C@@H](Cc1ccc(Cl)cc1)C(=O)O; NMedβ3hAla = C[C@H](CC(=O)[*:2])N(C)[*:1]; NMeGly(cPent) = CN[C@H](C(=O)O)C1CCCC1; NMeAla(cPr) = CN[C@@H](CC1CC1)C(=O)O; NMeGly(cBu) = CN[C@H](C(=O)O)C1CCC1; NMeCha = CN[C@@H](CC1CCCCC1)C(=O)O; NEtLeu = CCN[C@@H](CC(C)C)C(=O)O; NMeChg = CN[C@H](C(=O)O)C1CCCCC1; NMeI = CC[C@H](C)[C@H](NC)C(=O)O; d(β3hL) = CC(C)C[C@@H](N)CC(=O)O; NMeD = CN[C@@H](CC(=O)O)C(=O)O; NMeL = CN[C@@H](CC(C)C)C(=O)O; NMeV = CN[C@H](C(=O)O)C(C)C; d(β3hA) = C[C@@H](N)CC(=O)O; Azetidin(1-yl) = C1CN(*)C1; NMeS = CN[C@@H](CO)C(=O)O; Morpholide = C1CN(*)CCO1; NMeA = CN[C@@H](C)C(=O)O; Piperidide = C1CCN(*)CC1; Pyrrolidide = C1CCN(*)C1; Ac5c = NC1(C(=O)O)CCCC1; Aze = O=C(O)[C@@H]1CCN1; CH2CMe2OH = CC(C)(O)C*; Cyclobutyl = C1CC(*)C1; Aib = CC(C)(N)C(=O)O; Cyclopropyl = C1CC1*; NEtG = CCNCC(=O)O; Sar = CNCC(=O)O; Propyl = CCC*

The assay concerns Human pancreatic cancer cell line AsPC-1. Briefly: Measurement of AsPC-1 cell growth inhibition (AsPC-1 CGI). The assay is classed as cell-based. As to conditions: 96 h. In outline: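 AsPC-1 cells in 15% FBS RPMI-1640 were exposed to test compound for 96 hours at 37° C, with CellTiter-Glo as endpoint.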
Regarding `CC[C@H](C)[C@@H]1NC(=O)[C@H](CC(C)C)N(CC)C(=O)C[C@@H](C(=O)N2CCCCC2)N(C)C(=O)[C@H](C(C)C)N(C)C(=O)C2(CCCC2)NC(=O)[C@@H]2CCCN2C(=O)[C@H](CCc2ccc(C(F)(F)F)c(Cl)c2)NC(=O)CN(C)C(=O)[C@H](CC2CCCCC2)N(C)C(=O)[C@@H]2CCN2C(=O)[C@H](C)N(C)C1=O` [Compound 667] ([NEtLeu]I[NMeA][Aze][NMeCha][Sar][hPhe(3-Cl-4-CF3)]P[Ac5c][NMeV][NMeD]-Piperidide; lactam N-11), the IC50 is 100 to 500 nM. `CC[C@H](C)[C@@H]1NC(=O)[C@H](CC(C)C)N(C)C(=O)C[C@@H](C(=O)N2CCCCC2)N(C)C(=O)[C@H](C2CCC2)N(C)C(=O)C2(CCCC2)NC(=O)[C@@H]2CCCN2C(=O)[C@H](CCc2ccc(C(F)(F)F)c(Cl)c2)NC(=O)CN(C)C(=O)[C@H](CC2CCCCC2)N(C)C(=O)[C@@H]2CCN2C(=O)[C@H](C)N(C)C1=O` [Compound 672] ([NMeL]I[NMeA][Aze][NMeCha][Sar][hPhe(3-Cl-4-CF3)]P[Ac5c][NMeGly(cBu)][NMeD]-Piperidide; lactam N-11): the IC50 fell in the range of 100 to 500 nM. With `CC[C@H](C)[C@@H]1NC(=O)[C@H](CC(C)C)N(C)C(=O)C[C@@H](C(=O)N2CCCCC2)N(C)C(=O)[C@H]([C@@H](C)CC)N(C)C(=O)C2(CCCC2)NC(=O)[C@@H]2CCCN2C(=O)[C@H](CCc2ccc(C(F)(F)F)c(F)c2)NC(=O)CN(C)C(=O)[C@H](C2CCCC2)N(C)C(=O)[C@@H]2CCN2C(=O)[C@H](C)N(C)C1=O` [Compound 674] ([NMeL]I[NMeA][Aze][NMeGly(cPent)][Sar][hPhe(3-F,4-CF3)]P[Ac5c][NMeI][NMeD]-Piperidide; lactam N-11) the figure was 50 to 100 nM; with `CC[C@H](C)[C@@H]1NC(=O)[C@H](CC(C)C)N(C)C(=O)C[C@@H](C(=O)N2CCCCC2)N(C)C(=O)[C@H](C(C)C)N(C)C(=O)C2(CCCC2)NC(=O)[C@@H]2CCCN2C(=O)[C@H](CCc2ccc(C(F)(F)F)c(Cl)c2)NC(=O)CN(C)C(=O)[C@H](CC2CCCCC2)N(C)C(=O)[C@@H]2CCN2C(=O)[C@H](COC2CC2)N(C)C1=O` [Compound 676] ([NMeL]I[NMeS](Cyclopropyl)[Aze][NMeCha][Sar][hPhe(3-Cl-4-CF3)]P[Ac5c][NMeV][NMeD]-Piperidide; lactam N-11), 100 to 500 nM; with `CC[C@H](C)[C@@H]1NC(=O)[C@H](CC(C)C)N(C)C(=O)C[C@@H](C(=O)N(C)C)NC(=O)[C@H](C2CCCC2)N(C)C(=O)C2(CCCC2)NC(=O)[C@@H]2CCCN2C(=O)[C@H](CCc2ccc(C(F)(F)F)c(Cl)c2)NC(=O)CN(C)C(=O)[C@H](CC2CCCCC2)N(C)C(=O)[C@@H]2CCN2C(=O)[C@H](C)N(C)C1=O` [Compound 677] ([NMeL]I[NMeA][Aze][NMeCha][Sar][hPhe(3-Cl-4-CF3)]P[Ac5c][NMeGly(cPent)]D-NMe2; lactam N-11), 50 to 100 nM. Under `CC[C@H](C)[C@@H]1NC(=O)[C@H](CC(C)C)N(C)C(=O)C[C@@H](C(=O)N2CCCCC2)N(C)C(=O)[C@H](C(C)C)N(C)C(=O)C2(CCCC2)NC(=O)[C@@H]2CCCN2C(=O)[C@H](CCc2ccc(C(F)(F)F)c(Cl)c2)NC(=O)CN(C)C(=O)[C@H](Cc2ccc(Cl)cc2)N(C)C(=O)[C@@H]2CCN2C(=O)[C@H](C)N(C)C1=O` [Compound 680] ([NMeL]I[NMeA][Aze][NMePhe(4-Cl)][Sar][hPhe(3-Cl-4-CF3)]P[Ac5c][NMeV][NMeD]-Piperidide; lactam N-11) stands 100 to 500 nM; under `CCCOC[C@H]1C(=O)N(C)CC(=O)N[C@@H](CCc2ccc(C(F)(F)F)c(F)c2)C(=O)N2CCC[C@H]2C(=O)NC2(CCCC2)C(=O)N(C)[C@@H]([C@@H](C)CC)C(=O)N(C)[C@H](C(=O)N2CCCC2)CC(=O)N(C)[C@@H](CC(C)C)C(=O)N[C@@H]([C@@H](C)CC)C(=O)N(C)[C@@H](C)C(=O)N2CC[C@H]2C(=O)N1C` [Compound 684] ([NMeL]I[NMeA][Aze][NMeS](Propyl)[Sar][hPhe(3-F,4-CF3)]P[Ac5c][NMeI][NMeD]-Pyrrolidide; lactam N-11), 20 to 50 nM. With `CCCOC[C@H]1C(=O)N(C)CC(=O)N[C@@H](CCc2ccc(C(F)(F)F)c(F)c2)C(=O)N2CCC[C@H]2C(=O)NC2(CCCC2)C(=O)N(C)[C@@H]([C@@H](C)CC)C(=O)N(C)[C@H](C)CC(=O)N(C)[C@@H](CC(C)C)C(=O)N[C@@H]([C@@H](C)CC)C(=O)N(C)[C@@H](C)C(=O)N2CC[C@H]2C(=O)N1C` [Compound 694] (cyclo([Ac5c][NMeI][NMedβ3hAla][NMeL]I[NMeA][Aze][NMeS](Propyl)[Sar][hPhe(3-F,4-CF3)]P)) the figure was 20 to 50 nM; with `CC[C@H](C)[C@@H]1NC(=O)[C@H](CC(C)C)N(C)C(=O)C[C@@H](C(=O)N2CCCC2)NC(=O)[C@H](C2CCCC2)N(C)C(=O)C2(CCCC2)NC(=O)[C@@H]2CCCN2C(=O)[C@H](CCc2ccc(C(F)(F)F)c(Cl)c2)NC(=O)CN(C)C(=O)[C@H](CC2CCCCC2)N(C)C(=O)[C@@H]2CCN2C(=O)[C@H](C)N(C)C1=O` [Compound 700] ([NMeL]I[NMeA][Aze][NMeCha][Sar][hPhe(3-Cl-4-CF3)]P[Ac5c][NMeGly(cPent)]D-Pyrrolidide; lactam N-11), 100 to 500 nM; with `CC[C@H](C)[C@@H]1NC(=O)[C@H](CC(C)C)N(C)C(=O)C[C@@H](C(=O)N2CCC2)N(C)C(=O)[C@H](C2CCCC2)N(C)C(=O)C2(CCCC2)NC(=O)[C@@H]2CCCN2C(=O)[C@H](CCc2ccc(C(F)(F)F)c(Cl)c2)NC(=O)CN(CC)C(=O)[C@H](CC2CCCCC2)N(C)C(=O)[C@@H]2CCN2C(=O)[C@H](C)N(C)C1=O` [Compound 726] ([NMeL]I[NMeA][Aze][NMeCha][NEtG][hPhe(3-Cl-4-CF3)]P[Ac5c][NMeGly(cPent)][NMeD]-{Azetidin(1-yl)}; lactam N-11), 20 to 50 nM. `CC[C@H](C)[C@@H]1NC(=O)[C@H](C(C)C)N(C)C(=O)C[C@@H](C)NC(=O)[C@H](CC(C)C)N(C)C(=O)C(C)(C)NC(=O)[C@H](CC(C)C)N(C)C(=O)[C@H](CCc2ccc(C(F)(F)F)c(Cl)c2)NC(=O)CN(C)C(=O)[C@H](Cc2ccc(Cl)cc2)N(C)C(=O)CN(C)C(=O)CN(C)C1=O` [Compound 740] (cyclo([Aib][NMeL][d(β3hA)][NMeV]I[Sar][Sar][NMePhe(4-Cl)][Sar][hPhe(3-Cl-4-CF3)][NMeL])) gave an IC50 of 100 to 500 nM. Consider `CC[C@H](C)[C@@H]1NC(=O)[C@H](C)N(C)C(=O)C[C@@H](C)NC(=O)[C@H](C2CCCC2)N(C)C(=O)C2(CCCC2)NC(=O)[C@@H]2CCCN2C(=O)[C@H](CCc2ccc(C(F)(F)F)c(Cl)c2)NC(=O)CN(C)C(=O)[C@H](Cc2ccc(C(F)(F)F)cc2)N(C)C(=O)[C@@H]2CCCN2C(=O)CN(C)C1=O` [Compound 749] (cyclo([Ac5c][NMeGly(cPent)][d(β3hA)][NMeA]I[Sar]P[NMePhe(4-CF3)][Sar][hPhe(3-Cl-4-CF3)]P)), for which the IC50 fell in the range of 100 to 500 nM. `CC[C@H](C)[C@@H]1NC(=O)[C@H](COC2CCC2)N(C)C(=O)C[C@@H](C(=O)N2CCCCC2)N(C)C(=O)[C@H](C(C)C)N(C)C(=O)C2(CCCC2)NC(=O)[C@@H]2CCCN2C(=O)[C@H](CCc2ccc(C(F)(F)F)c(Cl)c2)NC(=O)CN(C)C(=O)[C@H](CC2CCCCC2)N(C)C(=O)[C@@H]2CCN2C(=O)[C@H](C)N(C)C1=O` [Compound 755] ([NMeS](Cyclobutyl)I[NMeA][Aze][NMeCha][Sar][hPhe(3-Cl-4-CF3)]P[Ac5c][NMeV][NMeD]-Piperidide; lactam N-11) yielded an IC50 of 100 to 500 nM. With `CC[C@H](C)[C@@H]1NC(=O)[C@H](CC2CC2)N(C)C(=O)C[C@@H](C)NC(=O)[C@H](C(C)C)N(C)C(=O)C2(CCCC2)NC(=O)[C@@H]2CCCN2C(=O)[C@H](CCc2ccc(C(F)(F)F)c(Cl)c2)NC(=O)CN(C)C(=O)[C@H](CC2CCCCC2)N(C)C(=O)[C@@H]2CCN2C(=O)[C@H](C)N(C)C1=O` [Compound 771] (cyclo([Ac5c][NMeV][d(β3hA)][NMeAla(cPr)]I[NMeA][Aze][NMeCha][Sar][hPhe(3-Cl-4-CF3)]P)) the figure was 100 to 500 nM. The compound `CCCOC[C@H]1C(=O)N(C)CC(=O)N[C@@H](CCc2ccc(C(F)(F)F)c(F)c2)C(=O)N2CCC[C@H]2C(=O)NC2(CCCC2)C(=O)N(C)[C@@H](C2CCCC2)C(=O)N(C)[C@H](C)CC(=O)N(C)[C@@H](CC(C)C)C(=O)N[C@@H]([C@@H](C)CC)C(=O)N(C)[C@@H](C)C(=O)N2CC[C@H]2C(=O)N1C` [Compound 776] (cyclo([Ac5c][NMeGly(cPent)][NMedβ3hAla][NMeL]I[NMeA][Aze][NMeS](Propyl)[Sar][hPhe(3-F,4-CF3)]P)) showed an IC50 of 20 to 50 nM. With `CC[C@H](C)[C@@H]1NC(=O)[C@H](CC(C)C)N(C)C(=O)C[C@@H](C(=O)N2CCCCC2)N(C)C(=O)[C@H](C2CCCCC2)N(C)C(=O)C2(CCCC2)NC(=O)[C@H](COCC(C)(C)O)N(C)C(=O)[C@H](CCc2ccc(C(F)(F)F)c(Cl)c2)NC(=O)CN(C)C(=O)[C@H](CC2CCCCC2)N(C)C(=O)CN(C)C(=O)CN(C)C1=O` [Compound 789] ([NMeL]I[Sar][Sar][NMeCha][Sar][hPhe(3-Cl-4-CF3)][NMeS](CH2CMe2OH)[Ac5c][NMeChg][NMeD]-Piperidide; lactam N-11) the figure was 100 to 500 nM; with `CC[C@H](C)[C@@H]1NC(=O)[C@H](CC(C)C)N(C)C(=O)C[C@@H](C(=O)N2CCOCC2)N(C)C(=O)[C@H]([C@@H](C)CC)N(C)C(=O)C2(CCCC2)NC(=O)[C@@H]2CCCN2C(=O)[C@H](CCc2ccc(C(F)(F)F)c(F)c2)NC(=O)CN(C)C(=O)[C@H](CC2CCCCC2)N(C)C(=O)[C@@H]2CCN2C(=O)[C@H](C)N(C)C1=O` [Compound 790] ([NMeL]I[NMeA][Aze][NMeCha][Sar][hPhe(3-F,4-CF3)]P[Ac5c][NMeI][NMeD]-Morpholide; lactam N-11), 20 to 50 nM; with `CC[C@H](C)[C@@H]1NC(=O)[C@H](CC(C)C)N(C)C(=O)C[C@@H](CC(C)C)NC(=O)[C@H]([C@@H](C)CC)N(C)C(=O)C2(CCCC2)NC(=O)[C@@H]2CCCN2C(=O)[C@H](CCc2ccc(C(F)(F)F)c(Cl)c2)NC(=O)CN(C)C(=O)[C@H](CC2CCCCC2)N(C)C(=O)[C@@H]2CCN2C(=O)[C@H](C)N(C)C1=O` [Compound 798] (cyclo([Ac5c][NMeI][d(β3hL)][NMeL]I[NMeA][Aze][NMeCha][Sar][hPhe(3-Cl-4-CF3)]P)), 100 to 500 nM.

(Values after patent US12371454B2, “Cyclic peptide compound having Kras inhibitory action” (priority 2019, dated 2025).)
